Experiments:
[1] = test system: panel of human cancer cell lines; assay: MTT cell cytotoxicity assay, cell line panel; type: cell-based; details: Homo sapiens; remaining cell lines (other than SQ20B, OVCAR3, A2780-1A9)
Protocol: Cell survival was determined using the MTT assay (3-[4,5-dimethylthiazol-2-yl]-2,5-diphenyltetrazolium bromide; Sigma, Saint-Quentin Fallavier, France). The conversion of yellow water-soluble tetrazolium MTT into purple insoluble formazan is catalyzed by mitochondrial dehydrogenases and used to estimate the number of viable cells. In brief, cells were seeded in 96-well tissue culture plates at a density of 2×10^3 cells/well. After 72 h drug exposure and 48 h wash-out, cells were incubated with 0.4 mg/ml MTT for 4 hours at 37° C. After incubation, the supernatant was discarded, insoluble formazan precipitates were dissolved in 0.1 ml of DMSO and the absorbance was measured at 560 nm by use of a microplate reader (Thermo, France). […] IC50's were determined as the halves of maximal inhibitory drug concentration for each cell line.
The antiproliferative effects of OTX-008 and anginex were assessed using MTT assay in a panel of human cancer cell lines of human origins expressing various levels of Lgals-1 mRNA and galectin-1 protein expressions (Supplementary Table 1). […] No correlation between mRNA expressions of galectin-2, galectin-3, and galectin-8 as well as semaphorin-3A, semaphorin-3B, neuropilin-1, VEGFR1-3, VEGFA-D, and PDGFRa&P3 and sensitivity to OTX-008 were detected in the panel.

[2] = test system: SQ-shGal1 cells; assay: Antiproliferative effects in galectin-1 silenced cells; type: cell-based, human; details: SQ-shGal1 cells in vitro
Protocol: Galectin-1 shRNA, Semaphorin-3A shRNA and scrambled shRNA plasmids were purchased from Santa Cruz Biotechnology (Santa Cruz, Calif., USA) and transfected into cells using the manufacturer's shRNA transfection protocol. Briefly, a mix of 1 μg shRNA plasmid DNA solution and lpl shRNA plasmid transfection reagent were incubated 45 minutes at room temperature and then added on 50% confluent cells with shRNA plasmid transfection medium. After 6 hours incubation at 37° C., normal growth medium containing double serum and antibiotics concentration was added. After 24 h, the stably transfected cells were selected with puromycin.
SQ-shGal1 cells were developed from SQ20B using a small hairpin GAL1-RNA silencing transfection. SQ-shGal1 cells display no difference in cell doubling-time and cloning capacity but expressed lower galectin-1 expression and invasive capacity in matrigel as compared to SQ20B (FIG. 8). […] As shown in FIG. 6C-left, silencing galectin-1 expression in mice was associated with a decreased development of secondary tumors as compared to parental SQ20B tumors. SQ-shGal1 cancer cells in tumors expressed lower level of Ki67 and VEGFR-2 expressions (FIG. 6D).

[3] = test system: GAL1 mRNA; assay: Real-time RT-PCR of GAL1 mRNA; type: cell-based, human; details: OTX-008 exposed cancer cells
Text: The theoretical and practical aspects of real-time quantitative RT-PCR using the ABI Prism 7900 Sequence Detection System (Perkin-Elmer Applied Biosystems, Foster City, Calif., USA) have been described in detail elsewhere Results were expressed as n-fold differences in target gene expression relative to the TBP gene (an endogenous RNA control) and relative to a calibrator (1× sample), consisting of the cell line sample from our tested series that contained the smallest amount of target gene mRNA. Experiments were performed in duplicate.

[4] = test system: SQ20B cells; assay: In vitro growth inhibition assay; type: cell-based, human; details: SQ20B, OTX-008 added to semaphorin-3A or lactose
Protocol: FIG. 5. Modulation of the galectin-1/semaphorin-3A/neuropilin system in SQ20B cells. A—Effects of galectin-1 (Gall), semaphorin-3A (Sema3A), lactose, with or without four different concentrations of OTX-008 on SQ20B growth at day 6. Embedded figure: Proliferation assay of SQ20B and SQ-shGAL1. B—In vitro matrigel invasion assay of SQ20B exposed to […] galectin-1, 1 μg/ml semaphorin-3A, 200 ng/ml lactose or 10 μM UO126 with or without 3 μM OTX-008. Embedded figure: In vitro matrigel invasion assay of SQ20B and SQ-shGAL1. Invasion was quantified after 48 h by counting the average number of invaded cells.
For proliferation assay, cells were seeded in 96-well tissue culture plates at a density of 1.5×10^3 cells/well. MTT assay was conducted daily to determine the number of viable cells in untreated control and treated group. Growth inhibition curves were plotted as a percentage of cells for each experimental condition.
Galectin-1 may form extracellular lattices counteracting the inhibitory properties of semaphorin-3A on neuropilin-1, eventually leading to the modulation of the vascular endothelial growth factor (VEGFR) and platelet derived growth factor (PDGFR) receptors, fibronectin, and laminin activity SQ20B cells expressed significant mRNA and protein levels of semaphorin-3A and neuropilin-1, PDGFRa&(, VEGF A-D, and VEGFR1-3 (Supplementary FIG. 2A). Thus, SQ20B cells were selected to evaluate the effects of OTX-008 on galectin-1/semaphorin-3A interactions. No difference between SQ20B cells growing in plastic or fibronectin- and laminin-coated plates. […] Galectin-1 and semaphorin-3A induced invasion was inhibited by OTX-008 mimicking the effects of lactose in this model.

[5] = test system: SQ20B cells; assay: Cell cycle analysis by flow cytometry; type: cell-based, human; details: 72 h exposure
Protocol: Cell cycle analysis was assessed by flow cytometry. In brief, cells were seeded onto […] flasks and treated with various concentrations of OTX-008. After 72 h exposure, adherent and non-adherent cells were recovered, washed with PBS, fixed in 70% ethanol and stored at −20° C. until use. Cells were rehydrated in PBS, incubated for 30 minutes at 37° C. with 200 μg/ml RNAse A, and for 20 minutes at +4° C. with 40 μg/ml propidium iodide in the dark. The cell cycle distribution was determined with a flow cytometer (FACSCalibur and Cell Quest Pro software, BD Biosciences, Le-Pont-de-Claix, France).
To study the mechanism of OTX-008-induced inhibition of cell proliferation, the effect of OTX-008 on cell cycle in SQ20B cells was examined (FIG. 5B). […] Activation of cdc2 (cdk1) by de-phosphorylation of tyrosine 15 is required for G2/M transition. […] Thus, the level of phosphorylated cdc2 on tyrosine 15 and wee1 on serine 642 in SQ20B cell line were exposed to 3 μM OTX-008 for 72 h. […] In order to determine the potential relationship between the inhibition of MAPK signaling pathways and the effects on cell cycle by OTX-008, SQ20B cells were pretreated for 2 h with the ERK1/2 inhibitor UO126 followed by the OTX-008 addition for 72 hours.

CN(C)CCNC(=O)COc1c2cccc1Cc1cccc(c1OCC(=O)NCCN(C)C)Cc1cccc(c1OCC(=O)NCCN(C)C)Cc1cccc(c1OCC(=O)NCCN(C)C)C2 [OTX-008]
GI50 [1]: > 9 µM | antiproliferative effects in galectin-1 silenced cells [2]: does not further increase its antiproliferative effects | GAL1 mRNA expression [3]: No change | antiproliferative effects in combination with semaphorin-3A or lactose [4]: enhanced the antiproliferative effects | cell cycle distribution [5]: dose-dependent accumulation of cells in G2/M phase

— patent US20140243415A1, “COMPOUNDS INHIBITING GALECTIN-1 EXPRESSION, CANCER CELL PROLIFERATION, INVASION, AND TUMORIGENESIS” (ONCOETHIX SA, priority 2011, published 2014)
